Measurements reported in patent publication US10144732B2 (BIOGEN MA INC., priority 2014, dated 2018).
Where “and” joins values, the source holds several entries; their conditions need not be identical. Identical values can stand only once. Counter-ions that a name gives are not always drawn. Like-named read-outs stand apart in the source and are kept apart here.

Target: T1, Human ATX protein (Homo sapiens, UniProt Q13822)
T1 construct: made in house
Assay: ATX biochemical assay (FRET, FS-3 substrate)
Settings: FS-3 2 μM, ATX 1.0 μg/mL, 30 minutes preincubation, 2 hours reaction at room temperature
Text: ATX (Autotaxin) is a 125 KDa glycoprotein with lysophospholipase D (LPLD) activity that generates the bioactive lipid lysophosphatidic acid (LPA) from lysophosphatidylcholine (LPC). The ATX biochemical assay utilizes a FRET (fluorescence resonance energy transfer) technology platform. The fluorescence signal of FRET substrate FS-3 is quenched due to intra-molecular FRET of a fluorophore to a non-fluorescing quencher (Ferguson, C. G., et al., Org Lett. 2006 May 11; 8(10): 2023-2026, which is incorporated by reference in its entirety). ATX catalyzes the hydrolysis of the substrate which separates the dabsyl quencher from the fluorescein reporter, which becomes fluorescent. The reaction is monitored by a SpectraMax M5 (Molecular Devices, Sunnyvale, Calif.) with at excitation wavelength 485 nm and emission wavelength […].
Fatty acid free-BSA (Sigma A8806): 10 mg/mL in H2O, stored at 4° C.
2×ATX assay buffer: 100 mM Tris, 280 mM NaCl, 10 mM KCl, 2 mM CaCl2, 2 mM MgCl2, pH 7.4.
Human ATX protein: expressed and purified in house. Stored at −80° C.
Substrate FS-3 (Echelon, L-2000): 100 μg in 77.74 μL H2O (1 mM stock), stored at −20° C.
384-well flat bottom plates—Corning #3575.
Compound dilution—All compounds were provided at 10 mM in 100% DMSO. In the first well, 2 μL of 10 mM compound was added to 78 μL of DMSO (1:40 dilution). In subsequent wells 3-fold dilution (total 10 dilutions) were performed.
1×ATX assay buffer was made up with a final concentration of 1 mg/mL fatty acid free-BSA using 2×ATX assay buffer, 10 mg/ml fatty acid free-BSA and ddH2O.
[…]. The final concentration of ATX in the reaction as 1.0 μg/mL.
2 μL per well of compounds was transferred to provide the desired concentration. The plate was centrifuged, then incubated at room temperature for 30 minutes on the shaker.
FS-3 was diluted with 1×ATX assay buffer to a concentration of FS-3 of 10 μM (5×). Then, 10 μL was added per well to the assay plate. The final concentration of FS-3 in the reaction was 2 μM. The plate was centrifuged. The plate was kept shaking at room temperature for 2 hours. Because FS-3 substrate is light sensitive, plates were kept covered and protected from light.
Fluorescence was measured using SpectraMax M5 (excitation at 485 nm/emission at 538 nm, top read).

COC(=O)[C@H]1CC[C@@H](NC(=O)N2CCc3c(C(F)(F)F)nn(Cc4ccc(Cl)cc4F)c3C2)CC1 [Example 3-1, cis-Methyl 4-(1-(4-chloro-2-fluorobenzyl)-3-(trifluoromethyl)-4,5,6,7-tetrahydro-1H-pyrazolo[3,4-c]pyridine-6-carboxamido)cyclohexanecarboxylate]
IC50 (FRET assay, read-out: IC50): ≤ 100 nM

CC(C)(C)OC(=O)NC12CCC(C(=O)N3CCc4c(C(F)(F)F)nn(Cc5ccc(F)cc5)c4C3)(CC1)CC2 [Example 8-10, tert-Butyl 4-(1-(4-fluorobenzyl)-3-(trifluoromethyl)-4,5,6,7-tetrahydro-1H-pyrazolo[3,4-c]pyridine-6-carbonyl)bicyclo[2.2.2]octan-1-ylcarbamate]
IC50 (FRET assay, read-out: IC50): ≤ 100 nM

CC1(C(=O)O)CC(CC(=O)N2CCc3c(C(F)(F)F)nn(Cc4ccc(Cl)cc4F)c3C2)C1 (stereo not drawn) [Example 6-18, 3-(2-(1-(4-Chloro-2-fluorobenzyl)-3-(trifluoromethyl)-4,5-dihydro-1H-pyrazolo[3,4-c]pyridin-6(7H)-yl)-2-oxoethyl)-1-methylcyclobutanecarboxylic acid]
IC50 (FRET assay, read-out: IC50): ≤ 100 nM

O=C(NC12CCC(C(=O)O)(CC1)CC2)N1CCc2c(C(F)(F)F)nn(Cc3ccc(Cl)cc3F)c2C1 [Example 5-8, 4-(1-(4-Chloro-2-fluorobenzyl)-3-(trifluoromethyl)-4,5,6,7-tetrahydro-1H-pyrazolo[3,4-c]pyridine-6-carboxamido)bicyclo[2.2.2]octane-I-carboxylic acid]
IC50 (FRET assay, read-out: IC50): ≤ 100 nM

O=C(O)[C@H]1CC[C@H](C(=O)N2CCc3c(C(F)(F)F)nn(Cc4ccc(F)cc4)c3C2)CC1 [Example 7-17, trans-4-(1-(4-Fluorobenzyl)-3-(trifluoromethyl)-4,5,6,7-tetrahydro-1H-pyrazolo[3,4-c]pyridine-6-carbonyl)cyclohexanecarboxylic acid]
IC50 (FRET assay, read-out: IC50): ≤ 100 nM

O=C(C[C@H]1CC[C@@H](C(=O)O)CC1)N1CCc2c(C(F)(F)F)nn(C3CCCCC3)c2C1 [Example 7-20, cis-4-(2-(1-cyclohexyl-3-(trifluoromethyl)-4,5-dihydro-1H-pyrazolo[3,4-c]pyridin-6(7H)-yl)-2-oxoethyl)cyclohexanecarboxylic acid]
IC50 (FRET assay, read-out: IC50): > 500 nM and ≤ 10000 nM

COC(=O)C1CC2COCC(C1)N2CC(=O)N1CCc2c(C(F)(F)F)nn(Cc3ccc(F)cc3)c2C1 (stereo not drawn) [Example 12-18, Methyl 9-(2-(1-(4-fluorobenzyl)-3-(trifluoromethyl)-4,5-dihydro-1H-pyrazolo[3,4-c]pyridin-6(7H)-yl)-2-oxoethyl)-3-oxa-9-azabicyclo[3.3.1]nonane-7-carboxylate]
IC50 (IC50, FRET assay): ≤ 100 nM

O=C(CN1CCCCC1)N1CCc2c(C(F)(F)F)nn(Cc3ccc(Cl)cc3F)c2C1 [Example 12-2, 1-(1-(4-Chloro-2-fluorobenzyl)-3-(trifluoromethyl)-4,5-dihydro-1H-pyrazolo[3,4-c]pyridin-6(7H)-yl)-2-(piperidin-1-yl)ethanone]
IC50 (FRET assay, read-out: IC50): ≤ 100 nM

Cc1ccc(Cn2nc(C(F)(F)F)c3c2CN(C(=O)C[C@H]2CC[C@H](C(=O)O)CC2)CC3)cc1 [Example 5-14, trans-4-(2-(1-(4-Methylbenzyl)-3-(trifluoromethyl)-4,5-dihydro-1H-pyrazolo[3,4-c]pyridin-6(7H)-yl)-2-oxoethyl)cyclohexanecarboxylic acid]
IC50 (FRET assay, read-out: IC50): ≤ 100 nM

CC(C)N1CCC(CC(=O)N2CCc3c(C(F)(F)F)nn(Cc4ccc(Cl)cc4F)c3C2)CC1 [Example 11-2, 1-(1-(4-Chloro-2-fluorobenzyl)-3-(trifluoromethyl)-4,5-dihydro-1H-pyrazolo[3,4-c]pyridin-6(7H)-yl)-2-(1-isopropylpiperidin-4-yl)ethanone HCl salt]
IC50 (FRET assay, read-out: IC50): ≤ 100 nM

CCOC(=O)[C@H]1CC[C@H](CC(=O)N2CCc3c(C(F)(F)F)nn(Cc4ccsc4)c3C2)CC1 [Example 1-45, trans-Ethyl-4-(2-oxo-2-(1-(thiophen-3-ylmethyl)-3-(trifluoromethyl)-4,5-dihydro-1H-pyrazolo[3,4-c]pyridin-6(7H)-yl)ethyl)cyclohexanecarboxylate]
IC50 (FRET assay, read-out: IC50): ≤ 100 nM

CN(C)c1nn(Cc2ccc(F)cc2)c2c1CCN(C(=O)C[C@H]1CC[C@H](C(=O)O)CC1)C2 [Example 5-43, trans-4-(2-(3-(Dimethylamino)-1-(4-fluorobenzyl)-4,5-dihydro-1H-pyrazolo[3,4-c]pyridin-6 (7H)-yl)-2-oxoethyl)cyclohexanecarboxylic acid]
IC50 (FRET assay, read-out: IC50): ≤ 100 nM

O=C(O)C1CCN(CC(=O)N2CCc3c(C(F)(F)F)nn(Cc4ccc(F)cc4)c3C2)CC1 [Example 13-1, 1-(2-(1-(4-Fluorobenzyl)-3-(trifluoromethyl)-4,5-dihydro-1H-pyrazolo[3,4-c]pyridin-6(7H)-yl)-2-oxoethyl)piperidine-4-carboxylic acid]
IC50 (FRET assay, read-out: IC50): ≤ 100 nM

O=C(O)C1CC2COCC(C1)N2CC(=O)N1CCc2c(C(F)(F)F)nn(Cc3ccc(Cl)cc3F)c2C1 (stereo not drawn) [Example 13-27, 9-(2-(1-(4-Chloro-2-fluorobenzyl)-3-(trifluoromethyl)-4,5-dihydro-1H-pyrazolo[3,4-c]pyridin-6(7H)-yl)-2-oxoethyl)-3-oxa-9-azabicyclo[3.3.1]nonane-7-carboxylic acid TFA salt]
IC50 (IC50, FRET assay): ≤ 100 nM

O=C(CC1CCN(c2ccncc2)CC1)N1CCc2c(C(F)(F)F)nn(Cc3ccc(F)cc3)c2C1 [Example 18-4, 1-(1-(4-Fluorobenzyl)-3-(trifluoromethyl)-4,5-dihydro-1H-pyrazolo[3,4-c]pyridin-6(7H)-yl)-2-(1-(pyridin-4-yl)piperidin-4-yl)ethanone TFA salt]
IC50 (FRET assay, read-out: IC50): ≤ 100 nM

CC(=O)N1CCCC(CC(=O)N2CCc3c(C(F)(F)F)nn(Cc4ccc(F)cc4)c3C2)C1 (stereo not drawn) [Example 17-1]
IC50 (FRET assay, read-out: IC50): ≤ 100 nM

O=C(O)C1CCC(CC(=O)N2CCc3c(C(F)(F)F)nn(Cc4cccc(F)c4)c3C2)CC1 (mixture of isomers) [Example 6-1, 4-(2-(1-(3-Fluorobenzyl)-3-(trifluoromethyl)-4,5-dihydro-1H-pyrazolo[3,4-c]pyridin-6(7H)-yl)-2-oxoethyl)cyclohexanecarboxylic acid]
IC50 (FRET assay, read-out: IC50): ≤ 100 nM

O=C(C[C@H]1CC[C@H](C(=O)O)CC1)N1CCc2c(C(F)(F)F)nn(CCC3CCCCC3)c2C1 [Example 7-22, trans-4-(2-(1-(2-cyclohexylethyl)-3-(trifluoromethyl)-4,5-dihydro-1H-pyrazolo[3,4-c]pyridin-6(7H)-yl)-2-oxoethyl)cyclohexanecarboxylic acid]
IC50 (FRET assay, read-out: IC50): ≤ 100 nM

COC(=O)C1CCN(CC(=O)N2CCc3c(C(F)(F)F)nn(Cc4ccc(F)cc4)c3C2)C1 (stereo not drawn) [Example 12-7, Methyl 1-(2-(1-(4-fluorobenzyl)-3-(trifluoromethyl)-4,5-dihydro-1H-pyrazolo[3,4-c]pyridin-6(7H)-yl)-2-oxoethyl)pyrrolidine-3-carboxylate]
IC50 (FRET assay, read-out: IC50): ≤ 100 nM

O=C(C[C@H]1CC[C@H](C(=O)O)CC1)N1CCc2c(-c3cccnc3)nn(Cc3ccc(F)cc3)c2C1 [Example 5-40, trans-4-(2-(1-(4-Fluorobenzyl)-3-(pyridin-3-yl)-4,5-dihydro-1H-pyrazolo[3,4-c]pyridin-6(7H)-yl)-2-oxoethyl)cyclohexanecarboxylic acid]
IC50 (FRET assay, read-out: IC50): ≤ 100 nM

CC(C)N1CCC(CC(=O)N2CCc3c(C(F)(F)F)nn(Cc4ccc(F)cc4)c3C2)C1 (stereo not drawn) [Example 10-6, 1-(1-(4-Fluorobenzyl)-3-(trifluoromethyl)-4,5-dihydro-1H-pyrazolo[3,4-c]pyridin-6(7H)-yl)-2-(1-isopropylpyrrolidin-3-yl)ethanone]
IC50 (FRET assay, read-out: IC50): ≤ 100 nM

CC1CCC(CC(=O)N2CCc3c(C(F)(F)F)nn(Cc4ccc(Cl)cc4F)c3C2)CC1 (stereo not drawn) [Example 1-21, 1-(1-(4-Chloro-2-fluorobenzyl)-3-(trifluoromethyl)-4,5-dihydro-1H-pyrazolo[3,4-c]pyridin-6(7H)-yl)-2-(4-methylcyclohexyl)ethanone]
IC50 (FRET assay, read-out: IC50): ≤ 100 nM

CCOC(=O)C1CCC(CC(=O)N2CCc3c(C(F)(F)F)nn(Cc4ccc(F)cc4)c3C2)CC1 (stereo not drawn) [Example 1-1, Ethyl 4-(2-(1-(4-fluorobenzyl)-3-(trifluoromethyl)-4,5-dihydro-1H-pyrazolo[3,4-c]pyridin-6 (7H)-yl)-2-oxoethyl)cyclohexanecarboxylate]
IC50 (FRET assay, read-out: IC50): ≤ 100 nM

O=C(CC1CNCCO1)N1CCc2c(C(F)(F)F)nn(Cc3ccc(Cl)cc3F)c2C1 (stereo not drawn) [Example 9-15, 1-(1-(4-Chloro-2-fluorobenzyl)-3-(trifluoromethyl)-4,5-dihydro-1H-pyrazolo[3,4-c]pyridin-6(7H)-yl)-2-(morpholin-2-yl)ethanone TFA salt]
IC50 (FRET assay, read-out: IC50): ≤ 100 nM
